Assays:
Assay type in all cases: cell-based
p62 protein [1] = biological target: T1, p62 protein (Homo sapiens, UniProt Q13501); experiment: Activity of p62 protein and delivery of ubiquitinated substrate proteins to autophagy by immunofluorescence staining (p62, FK2) and confocal microscopy; parameters: endogenous in cells; host or cells: HeLa; conditions: Hela cell line, 1 uM, 6 hours
Procedure: Immunofluorescence staining was performed using p62 and FK2 as markers to determine the level of the activity of p62 protein of the compounds (Examples 1-20). In order to determine the level of p62 activity and autophagy activity by the novel p62 ligand and its isomers in the cultured cells, the Hela cell line derived from cervical cancer patients was treated with a novel p62 ligand compound (Example 1 (ATB10048), Example 2 (ATB10047), Example 3 (ATB10049), Example 5 (ATB10050), Example 4 (ATB10051), Example 7 (ATB10052), Example 6 (ATB10056), Example 8 (ATB10057), Example 9 (ATB10060), Example 10 (ATB10072), Example 11 (ATB10075), Example 12 (ATB10078), […], Example 14 (ATB10080), Example 15 (ATB10081), Example 16 (ATB10087)), Example 17 (ATB0096), Example 18 (ATB10097), Example 19 (ATB10099) and Example 20 (ATB10100)) and cultured, and then the level of puncta expression and location of FK2, which was a marker of the protein to be delivered to and degraded in the autophagy through the mediation of the intracellular ubiquitinated p62, and the puncta local co-existence with p62 were observed.
For immunofluorescence staining, a cover glass was placed on a 24-well plate, cells were dispensed and cultured for 24 hours, and then 1 uM of the novel p62 ligand according to the present invention was treated. After culturing for an additional 6 hours for the action of the compound, the medium was removed, and the cells were fixed using formaldehyde at room temperature. In order to prevent non-specific staining, the cells were reacted with a blocking solution at room temperature for 1 hour, and then the LC3 antibody diluted at a certain ratio was treated with a blocking solution and then reacted at room temperature for 1 hour. After the antibody-treated cells were washed 3 times with PBS, the goat-derived secondary antibody was diluted at a certain ratio using the blocking solution, and then reacted at room temperature for 30 minutes. After further washing with PBS three times, and DAPI staining was performed for intracellular nuclear staining. Then, the level of expression of p62 or FK2, the level of intracellular puncta formation, and the level of coexistence in the cells were observed by a confocal microscope.

p62 protein [2] = biological target: T1, p62 protein; experiment: Oligomerization activity of p62 protein by immunoblotting; parameters: endogenous in cells; conditions: HEK293 cell line lysate treated with test compounds for 2 hours at room temperature
Excerpt: In order to evaluate the oligomerization activity efficacy of p62 protein of the compounds (Examples 1-20), HEK293 cell line, which is human embryonic kidney-derived cell, was collected. As representative compounds of the present compounds, the compounds of Examples 1-20 (Example 1 (ATB10048), Example 2 (ATB10047), Example 3 (ATB10049), Example 4 (ATB10051), Example 5 (ATB10050), Example 6 (ATB10056), Example 7 (ATB10052), Example 8 (ATB10057), Example 9 (ATB10060), Example 10 (ATB10072), Example 11 (ATB10075), Example 12 (ATB10078), Example 13 (ATB10079), Example 14 (ATB10080), Example 15 (ATB10081), Example 16 (ATB10087), Example 17 (ATB10096), Example 18 (ATB10097), Example 19 (ATB10099) and Example 20 (ATB10100)) were selected, and in order to measure the activation and oligomerization of the p62 protein in cells according to the treatment with these selected representative compounds, each cell was dispensed into a 100 phi dish. The cells were collected after additional culture for 24 hours so that the cells were completely attached to the surface of the plate, and 100 ul of lysis buffer (20 mM Tris (pH 7.4), 150 mM NaCl, 1% Triton X-100, 2 mM NaF, 2 mM EDTA, 2 mM beta-glycerophosphate, 5 mM sodium orthovanadate, 1 mM PMSF, leupeptin, aproteinin) was injected to each sample, and the cells were lysed. Based on the measured total protein concentration, each sample was treated with the test compounds for 2 hours at room temperature, and then a sample buffer was added and reacted at 95° C. for 10 minutes. 25 ul was taken from the samples after the reaction was completed and dispensed into each well of an acrylamide gel, and immunoblotting was performed.

p62 protein [3] = biological target: T1, p62 protein; experiment: Activity of p62 protein and delivery to autophagosome by immunofluorescence staining (p62, LC3-GFP) and confocal microscopy; parameters: endogenous in cells; host or cells: HeLa; conditions: Hela-LC3-GFP cell line, 5 uM, 24 hours
Procedure: Immunofluorescence staining was performed using p62 and FK2 marker to determine the level of activity of p62 protein of the compounds (Examples 1-20). In order to determine the level of p62 activity and autophagy activity by the novel p62 ligand and its isomers in cultured cells, Hela-LC3-GFP cell line derived from cervical cancer patients was treated with the novel p62 ligand compounds (Example 2 (ATB10047), Example 3 (ATB10049), Example 4 (ATB10051), Example 6 (ATB10056), Example 9 (ATB10060), Example 12 (ATB10078), Example 16 (ATB10087) and Example (ATB10097)) and cultured. Then, the level of puncta expression and location of LC3-GFP, which is an essential autophagosome marker for macroautophagy, and the puncta local co-existence of p62 were observed.
For immunofluorescence staining, a cover glass was placed on a 24-well plate, cells were dispensed and cultured for 24 hours, and then treated with 5 uM of the novel p62 ligand according to the present invention. The cells were further cultured for an additional 24 hours for the action of the compound, the medium was removed, and the cells were fixed using formaldehyde at room temperature. In order to prevent non-specific staining, the cells were reacted with a blocking solution at room temperature for 1 hour, and then the LC3 antibody diluted at a certain ratio was treated with the blocking solution and then reacted at room temperature for 1 hour. After the antibody-treated cells were washed 3 times with PBS, the goat-derived secondary antibody was diluted at a certain ratio using the blocking solution, and then reacted at room temperature for 30 minutes. The cells were washed again with PBS three times and subjected to DAPI staining for intracellular nuclear staining, and then the level of expression of p62 or LC3, intracellular puncta formation, and intracellular coexistence level were observed by a confocal microscope.

T1 sequence (Q13501 whole entry): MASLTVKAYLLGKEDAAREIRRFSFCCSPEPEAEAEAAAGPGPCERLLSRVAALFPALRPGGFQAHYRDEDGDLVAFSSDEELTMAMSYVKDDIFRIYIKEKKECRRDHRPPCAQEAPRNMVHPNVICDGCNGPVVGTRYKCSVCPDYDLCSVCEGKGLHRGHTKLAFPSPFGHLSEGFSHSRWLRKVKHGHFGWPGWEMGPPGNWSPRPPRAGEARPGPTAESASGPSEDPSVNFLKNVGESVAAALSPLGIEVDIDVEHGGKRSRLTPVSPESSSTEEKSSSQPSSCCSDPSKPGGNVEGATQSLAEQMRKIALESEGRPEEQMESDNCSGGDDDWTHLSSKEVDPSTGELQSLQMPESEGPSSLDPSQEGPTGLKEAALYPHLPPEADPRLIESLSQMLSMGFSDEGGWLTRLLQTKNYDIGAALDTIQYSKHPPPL

OCCNC[C@@H](O)COc1cncc(OCc2ccccc2)c1 [Example 13, (R)-1-((5-(benzyloxy)pyridin-3-yl)oxy)-3-((2-hydroxyethyl)amino)propan-2-ol]
delivery of ubiquitinated proteins marked with FK2 to autophagosome mediated by p62 (FIGS. 3a to 3d) (p62 protein [1]): show the efficacy of delivering the proteins to be delivered to and degraded by autophagosome | p62 protein oligomerization activity (immunoblot, FIGS. 2a to 2d) (p62 protein [2]): increasing the p62 protein oligomerization activity

OCCNCc1ccc(OCc2ccccc2)s1 [Example 17, 2-(((5-(benzyloxy)thiophen-2-yl)methyl)amino)ethan-1-ol]
delivery of ubiquitinated proteins marked with FK2 to autophagosome mediated by p62 (FIGS. 3a to 3d) (p62 protein [1]): show the efficacy of delivering the proteins to be delivered to and degraded by autophagosome | p62 protein oligomerization activity (immunoblot, FIGS. 2a to 2d) (p62 protein [2]): increasing the p62 protein oligomerization activity

O=C(CO)NCc1ccc(CCc2ccccc2)o1 [Example 19, 2-hydroxy-N-((5-phenethylfuran-2-yl)methyl) acetamide]
delivery of ubiquitinated proteins marked with FK2 to autophagosome mediated by p62 (FIGS. 3a to 3d) (p62 protein [1]): show the efficacy of delivering the proteins to be delivered to and degraded by autophagosome | p62 protein oligomerization activity (immunoblot, FIGS. 2a to 2d) (p62 protein [2]): increasing the p62 protein oligomerization activity

OCCNCc1ncc(OCc2ccccc2)cn1 [Example 9, 2-(((5-(benzyloxy)pyrimidin-2-yl)methyl)amino)ethan-1-ol]
targeting of activated, oligomerized p62 protein to the autophagosome (FIG. 4) (p62 protein [3]): show the efficacy of targeting them to the autophagosome | delivery of ubiquitinated proteins marked with FK2 to autophagosome mediated by p62 (FIGS. 3a to 3d) (p62 protein [1]): show the efficacy of delivering the proteins to be delivered to and degraded by autophagosome | p62 protein oligomerization activity (immunoblot, FIGS. 2a to 2d) (p62 protein [2]): increasing the p62 protein oligomerization activity

COc1ccc(OC[C@H](O)CNCCO)nc1OCc1ccccc1 [Example 11, (R)-1-((6-(benzyloxy)-5-methoxypyridin-2-yl)oxy)-3-((2-hydroxyethyl)amino)propan-2-ol]
delivery of ubiquitinated proteins marked with FK2 to autophagosome mediated by p62 (FIGS. 3a to 3d) (p62 protein [1]): show the efficacy of delivering the proteins to be delivered to and degraded by autophagosome | p62 protein oligomerization activity (immunoblot, FIGS. 2a to 2d) (p62 protein [2]): increasing the p62 protein oligomerization activity

OCCNCc1cc(OCc2ccccc2)c(OCc2ccccc2)cn1 [Example 8, 2-(((4,5-bis(benzyloxy)pyridin-2-yl)methyl)amino)ethan-1-ol]
delivery of ubiquitinated proteins marked with FK2 to autophagosome mediated by p62 (FIGS. 3a to 3d) (p62 protein [1]): show the efficacy of delivering the proteins to be delivered to and degraded by autophagosome | p62 protein oligomerization activity (immunoblot, FIGS. 2a to 2d) (p62 protein [2]): increasing the p62 protein oligomerization activity

OCCNCc1cccc(OCc2ccccc2)n1 [Example 2, 2-(((6-(benzyloxy)pyridin-2-yl)methyl)amino)ethan-1-ol]
targeting of activated, oligomerized p62 protein to the autophagosome (FIG. 4) (p62 protein [3]): show the efficacy of targeting them to the autophagosome | delivery of ubiquitinated proteins marked with FK2 to autophagosome mediated by p62 (FIGS. 3a to 3d) (p62 protein [1]): show the efficacy of delivering the proteins to be delivered to and degraded by autophagosome | p62 protein oligomerization activity (immunoblot, FIGS. 2a to 2d) (p62 protein [2]): increasing the p62 protein oligomerization activity

O=C(O)CNCc1ccc(OCCc2ccccc2)s1 [Example 20, ((5-phenethoxythiophen-2-yl)methyl)glycine]
delivery of ubiquitinated proteins marked with FK2 to autophagosome mediated by p62 (FIGS. 3a to 3d) (p62 protein [1]): show the efficacy of delivering the proteins to be delivered to and degraded by autophagosome | p62 protein oligomerization activity (immunoblot, FIGS. 2a to 2d) (p62 protein [2]): increasing the p62 protein oligomerization activity

OCCNCc1cc(OCc2ccccc2)ccn1 [Example 5, 2-(((4-(benzyloxy)pyridin-2-yl)methyl)amino)ethan-1-ol]
delivery of ubiquitinated proteins marked with FK2 to autophagosome mediated by p62 (FIGS. 3a to 3d) (p62 protein [1]): show the efficacy of delivering the proteins to be delivered to and degraded by autophagosome | p62 protein oligomerization activity (immunoblot, FIGS. 2a to 2d) (p62 protein [2]): increasing the p62 protein oligomerization activity

OCCNC[C@@H](O)COc1cccc(NCc2ccccc2)n1 [Example 14, (R)-1-((6-(benzylamino)pyridin-2-yl)oxy)-3-((2-hydroxyethyl)amino)propan-2-ol]
delivery of ubiquitinated proteins marked with FK2 to autophagosome mediated by p62 (FIGS. 3a to 3d) (p62 protein [1]): show the efficacy of delivering the proteins to be delivered to and degraded by autophagosome | p62 protein oligomerization activity (immunoblot, FIGS. 2a to 2d) (p62 protein [2]): increasing the p62 protein oligomerization activity

OCCNC[C@@H](O)CNc1cccc(OCc2ccccc2)n1 [Example 15, (R)-1-((6-(benzyloxy)pyridin-2-yl)amino)-3-((2-hydroxyethyl)amino)propan-2-ol]
delivery of ubiquitinated proteins marked with FK2 to autophagosome mediated by p62 (FIGS. 3a to 3d) (p62 protein [1]): show the efficacy of delivering the proteins to be delivered to and degraded by autophagosome | p62 protein oligomerization activity (immunoblot, FIGS. 2a to 2d) (p62 protein [2]): increasing the p62 protein oligomerization activity

O=C(CO)NCc1cccc(OCc2ccccc2)n1 [Example 1]
delivery of ubiquitinated proteins marked with FK2 to autophagosome mediated by p62 (FIGS. 3a to 3d) (p62 protein [1]): show the efficacy of delivering the proteins to be delivered to and degraded by autophagosome | p62 protein oligomerization activity (immunoblot, FIGS. 2a to 2d) (p62 protein [2]): increasing the p62 protein oligomerization activity

OCCNC[C@@H](O)COc1cc(OCc2ccccc2)ccn1 [Example 10, (R)-1-((4-(benzyloxy)pyridin-2-yl)oxy)-3-((2-hydroxyethyl)amino)propan-2-ol]
delivery of ubiquitinated proteins marked with FK2 to autophagosome mediated by p62 (FIGS. 3a to 3d) (p62 protein [1]): show the efficacy of delivering the proteins to be delivered to and degraded by autophagosome | p62 protein oligomerization activity (immunoblot, FIGS. 2a to 2d) (p62 protein [2]): increasing the p62 protein oligomerization activity

O=C(CO)NCc1cc(OCc2ccccc2)c(OCc2ccccc2)cn1 [Example 7, N-((4,5-bis(benzyloxy)pyridin-2-yl)methyl)-2-hydroxyacetamide]
delivery of ubiquitinated proteins marked with FK2 to autophagosome mediated by p62 (FIGS. 3a to 3d) (p62 protein [1]): show the efficacy of delivering the proteins to be delivered to and degraded by autophagosome | p62 protein oligomerization activity (immunoblot, FIGS. 2a to 2d) (p62 protein [2]): increasing the p62 protein oligomerization activity

Reference: patent publication US20220402873A1, “NOVEL P62 LIGAND COMPOUND, AND COMPOSITION CONTAINING SAME FOR PREVENTING, AMELIORATING, OR TREATING PROTEINOPATHIES” (AUTOTAC INC., priority 2019, published 2022)
